ChEMBL document CHEMBL1155594, “Absolute configuration and antiprotozoal activity of minquartynoic acid” (J Nat Prod, 2000)
Converted amounts (≈) assume the structure as drawn.

Columns and labels:
Leishmania major = assay: Antileishmanial activity against Leishmania major promastigotes after 20 hrs; type: functional, organism-based
[1] = Inhibition of phytohemagglutininin A-induced proliferation in human lymphocytes assessed as radiolabeled thymidine uptake; type: cell-based; conditions: Lymphocyte
Plasmodium falciparum = assay: Antiplasmodial activity against chloroquine-sensitive Plasmodium falciparum 3D7; type: functional, organism-based

Compound: C[C@H](O)C#CC#CC#CC#CCCCCCCCC(=O)O [MINQUARTYNOIC ACID]
- IC50 (Leishmania major): 1.4 µg/mL (≈ 4.92 µM)
- IC50 [1]: 5.3 µg/mL (≈ 18.6 µM)
- IC50 (Plasmodium falciparum): 3 µg/mL (≈ 10.6 µM)
